Measured values: publication PMC8519103 (Chemmedchem, 2021)
Where “and” joins values, the source holds several entries; their conditions need not be identical. Equal values may be shown once.

Tested on: M. bovis BCG
Experiment: microbe, parasite or virus in culture
Type: cell-based, Mycobacterium bovis DSM-43990 (BCGT)
Settings: not given

| SMILES | MIC50 relative to KD (MIC50 = x × KD) |
| --- | --- |
| C=CC(c1ccc(-c2ccc(OC)c(OC)c2)cc1)n1ccnc1 (stereo not drawn) [Compound S3, 1‐(1‐(3’,4’‐dimethoxy‐[1,1’‐biphenyl]‐4‐yl)allyl)‐1H‐imidazole] | > 2 |
| C=CC(c1ccc(-c2ccc3c(c2)OCO3)cc1F)n1ccnc1 (stereo not drawn) [Compound S8] | > 2 |
| C=CC(c1ccc(-c2ccc3c(c2)OCO3)cc1)n1ccnc1 (stereo not drawn) [Compound S5, 1‐(1‐(4‐(benzo[d][1,3]dioxol‐5‐yl)phenyl)allyl)‐1H‐imidazole] | > 2 |
| C=CC(c1ccc(-c2ccc(OC)c(C)c2)cc1)n1ccnc1 (stereo not drawn) [Compound S4, 1‐(1‐(4’‐methoxy‐3’‐methyl‐[1,1’‐biphenyl]‐4‐yl)allyl)‐1H‐imidazole] | > 2 |
| C=CC(c1ccc(-c2ccc3[nH]ccc3c2)cc1)n1ccnc1 (stereo not drawn) [Compound S10, 5‐(4‐(1‐(1H‐imidazol‐1‐yl)allyl)phenyl)‐1H‐indole] | > 2 |

Same assay, conditions: Mycobacterium tuberculosis variant bovis BCG, BCG, read-out: MIC50

| SMILES | IC50 |
| --- | --- |
| Clc1ccc(COC(Cn2ccnc2)c2ccc(Cl)cc2Cl)cc1 (stereo not drawn) [Econazole, reference compound] | 2.6 µg/mL and 12.7 µM |
